Experimental findings from ChEMBL document CHEMBL1128207 (J Med Chem, 1995) are described below.

Experiment [1] has as its target Progesterone receptor (Oryctolagus cuniculus) (UniProt P06186). Put plainly: Binding affinity towards rabbit progesterone receptor.
Experiment [2] has the same target. Put plainly: Binding affinity towards rabbit progesterone receptor; not active.

By IC50 is commonly meant the concentration that gives 50% inhibition. Read a low IC50 as greater potency in that assay. Turning to `O=C(c1ccc(Cl)cc1)N1CCCC(c2ccc(Cl)cc2)=N1`, the IC50 in experiment [1] came to 4000 nM. Regarding `COc1ccc(C2=NN(C(=O)c3ccc(C(C)(C)C)cc3)CCC2)cc1`, the concentration for half-maximal inhibition (IC50) entry in experiment [2] was “Not Active”. Same read-out and setting: the value for `COc1ccc(C(=O)N2CCCC(c3ccc(Cl)cc3)=N2)cc1` was “Not Active”; that for `COc1ccc(C2=NN(C(=O)c3ccc(Br)cc3)CCC2)cc1` was “Not Active”; that for `COc1ccc(C2=NN(C(=O)c3ccc(C)cc3)CCC2)cc1` was “Not Active”.

As for `CC(C)(C)c1ccc(C(=O)N2CCCC(c3ccccc3)=N2)cc1`, in experiment [2], the concentration for half-maximal inhibition (IC50) result was “Not Active”. The same measure, in the same setting: under `COc1ccc(C2=NN(C(=O)c3cccc(Cl)c3)CCC2)cc1` stands “Not Active”. On the same count and under the same terms, the value for `COc1ccc(C2=NN(C(=O)c3ccc(Cl)cc3)CCC2)cc1` was “Not Active”; that for `Cc1ccc(C(=O)N2CCCC(c3ccccc3)=N2)cc1` was “Not Active”. In the case of `O=C(c1ccc(Cl)c(Cl)c1)N1CCCC(c2ccc(F)cc2)=N1`, the IC50 in experiment [1] was found to be 250 nM. As for `COc1ccc(C2=NN(C(=O)c3ccccc3)CCC2)cc1`, the half-maximal inhibitory concentration (IC50) entry in experiment [2] is given as “Not Active”. Still for that read-out and setting: under `COc1ccc(C2=NN(C(=O)c3ccc(Cl)c(Cl)c3)CCC2)cc1` stands “Not Active”; under `O=C(c1ccc(Cl)cc1)N1CCCC(c2ccccc2)=N1`, “Not Active”. In experiment [1], `O=C(c1ccc(Cl)c(Cl)c1)N1CCCC(c2ccccc2)=N1` gave an IC50 of 4000 nM. Consider `Cc1ccc(C(=O)N2CCCC(c3ccc(Cl)cc3)=N2)cc1`, for which, in experiment [2], the IC50 result is given as “Not Active”.

Regarding `O=C(c1cccc(Cl)c1)N1CCCC(c2ccc(Cl)cc2)=N1`, the half-inhibitory concentration (IC50) entry in experiment [2] was “Not Active”. On to `O=C(c1ccc([N+](=O)[O-])cc1)N1CCCC(c2ccc(Cl)cc2)=N1`, for which the IC50 in experiment [1] worked out at 270 nM. Turning to `O=C(c1cc(Cl)cc(Cl)c1)N1CCCC(c2ccc(Br)cc2)=N1`, in experiment [1], the IC50 was 470 nM.

Turning to `COc1ccc(C(=O)N2CCCC(c3ccccc3)=N2)cc1`, the half-inhibitory concentration (IC50) entry in experiment [2] is “Not Active”.

`O=C(c1ccc([N+](=O)[O-])cc1)N1CCCC(c2ccc(Cl)c(Cl)c2)=N1` had an IC50 in experiment [1] of 100 nM. `O=C(c1ccc(Cl)c(Cl)c1)N1CCCC(c2ccc(Cl)c(Cl)c2)=N1` gave a concentration for half-maximal inhibition (IC50) in experiment [1] of 100 nM.

Consider `O=C(c1ccccc1)N1CCCC(c2ccc(Cl)cc2)=N1`, for which, in experiment [2], the IC50 result is “Not Active”. With `CC(C)(C)c1ccc(C(=O)N2CCCC(c3ccc(Cl)cc3)=N2)cc1`, the IC50 result in experiment [2] was “Not Active”. Still for that read-out and setting: under `O=C(c1cccc(Cl)c1)N1CCCC(c2ccccc2)=N1` stands “Not Active”; under `COc1ccc(C(=O)N2CCCC(c3ccc(OC)cc3)=N2)cc1`, “Not Active”. Still for that read-out and setting: under `O=C(c1ccccc1)N1CCCC(c2ccccc2)=N1` stands “Not Active”; under `O=C(c1ccc(Br)cc1)N1CCCC(c2ccccc2)=N1`, “Not Active”.

In experiment [1], `O=C(c1ccc([N+](=O)[O-])cc1)N1CCCC(c2ccc(F)cc2)=N1` showed a half-maximal inhibitory concentration (IC50) of 1020 nM.
